Results from paper PMC3996874, “Esterase Active in Polar Organic Solvents from the Yeast Pseudozyma sp. NII 08165” (Enzyme Research, 2014).

System: T1, LIP1 esterase
T1 construct: single band of 175 kDa on SDS-PAGE
Test: pNP release at […] nm, Michaelis-Menten fit (GraphPad Prism)
Type: biochemical, Pseudozyma sp. NII 08165
Conditions: pH 8, 60 °C; 0.05-0.7 mM pNPP

CCCCCCCCCCCCCCCC(=O)Oc1ccc([N+](=O)[O-])cc1 [para-nitrophenyl palmitate]
Km: 10 µM
